Laboratory results taken from article PMC8402075, “Synthesis and Antiplasmodial Activity of Bisindolylcyclobutenediones” (Molecules, 2021).
Like-named read-outs stand apart in the source and are kept apart here.

Key:
[1] = system: P. falciparum (NF54-luc strain) erythrocytic stages; experiment: Luciferase-based viability screening for antiplasmodial activity; assay type: cell-based, Plasmodium falciparum; conditions: for inhibition at 3 µM: read-out: Inhibition at 3 µM [%]
Procedure: All synthesized new bisindolylcyclobutenediones 2a–2ar and the related bisindolylmaleimide 8 [37] were screened for inhibition of erythrocytic stages of Plasmodium falciparum employing a bioluminescence-based viability assay on transgenic parasites that constitutively express luciferase (PfNF54-luc). Initially, the compounds were evaluated in single-dose test runs (3 µM). If >20% viability inhibition was observed, dose-response curves were generated and IC50 values were calculated (Table 1). […] The bisindolylmaleimide 8 [37] inhibited the parasites in a single-digit micromolar concentration, similar to many of the bisindolylcyclobutenediones in the study. Because the bisindolylcyclobutenediones 2 display a higher degree of structural novelty, only this compound class was further pursued for its antiplasmodial activity. […] These structural features were considered unfavorable for orientations as illustrated in Figure 2 with 2a and Pfmap-2, PfPK5, PfCDPK2, Pflammer, and PfPK7, respectively. However, a structure generated for 2a in PfGSK-3 in which the indole units are oriented perpendicular to each other (Figure 2a) was considered compatible with the indicated substitution pattern. Consequently, the potent antiplasmodial derivatives 2k, 2ad, and 2ae were tested in a kinase Glo assay for inhibition of recombinant PfGSK-3. […] For the compounds with particularly potent antiplasmodial activity, cytotoxicity was also determined using the human cell line THP-1 to assess selectivity with respect to parasite cells (Table 2).
Screening for the antiplasmodial activity of test compounds was performed by luciferase-based viability assays as reported previously. In brief, asexual erythrocytic stages of transgenic NF54-luc P. falciparum were cultured as described elsewhere. Parasite cultures with parasitaemia of 0.5–1% were incubated in the presence of 3 µM test compounds for 48 h. After the subsequent addition of Bright-Glo substrate solution (Promega, Madison, WI), the resulting luminescence was measured. Untreated cultures (0.01% DMSO) were used as negative controls. Experiments were performed in triplicate and were repeated as a whole at least twice. Blasticidin (Sigma-Aldrich, St. Louis, MO, USA) was included as a positive control.

human THP-1 cell line = experiment: Cytotoxicity assay on human THP-1 cell line (Alamar Blue); assay type: cell-based; conditions: for Selectivity Index (SI) = IC50, THP-1/IC50, Pf: THP-1 versus P. falciparum NF54-luc; for IC50: human THP-1 cell line, 48 h, Alamar Blue
Procedure: The cytotoxicity of selected antiplasmodial bisindolylcyclobutenediones was determined against THP-1 cells following a protocol described previously. In brief, THP-1 cells were incubated with test compounds in serial compound dilutions in the presence of 0.01% DMSO at 37 °C. After 48 h, Alamar Blue was added, and after 4 h the fluorescence was read (λex = 544 nm, λem = 590 nm) using a microplate reader. THP-1 cells in wells containing medium plus 0.01% DMSO served as negative controls. Experiments were performed in triplicate and were repeated as a whole at least twice.

[2] = Plasmodium falciparum, NF54, 48 h, read-out: IC50 [µM], concentration for 50% inhibition of P. falciparum (NF54-luc strain) erythrocytic stages
[3] = Plasmodium falciparum, NF54, read-out: IC50, Pf [µM]
[4] = Plasmodium falciparum, NF54, 48 h
[5] = Plasmodium falciparum, NF54, read-out: IC50 P. falciparum (quoted in the discussion)

O=c1c(-c2c[nH]c3ccccc23)c(-c2c[nH]c3ccccc23)c1=O [2a, 3,4-Bis(1H-indol-3-yl)cyclobut-3-ene-1,2-dione]
IC50 [1, 2]: 8.33 µM

O=c1c(-c2c[nH]c3ccccc23)c(-c2c(-c3ccccc3)[nH]c3ccccc23)c1=O [2h, 3-(1H-Indol-3-yl)-4-(2-phenyl-1H-indol-3-yl)cyclobut-3-ene-1,2-dione]
IC50 [1, 2]: 6.38 µM
IC50 [1, 3]: 6.38 µM
Selectivity Index (SI) = IC50, THP-1/IC50, Pf (human THP-1 cell line): 1.0
IC50 (human THP-1 cell line): 6.37 µM

Cn1cc(-c2c(-c3c[nH]c4ccc(Br)cc34)c(=O)c2=O)c2ccccc21 [2t, 3-(5-Bromo-1H-indol-3-yl)-4-(1-methyl-1H-indol-3-yl)cyclobut-3-ene-1,2-dione]
inhibition at 3 µM [1, 4]: 1.38 ± 3.3%

CN(CC[C@H](N)CC(=O)N[C@H]1C=C[C@H](n2ccc(N)nc2=O)O[C@@H]1C(=O)O)C(=N)N [BSD, Blasticidin, reference compound]
Inhibition at 3 µM [%] ([1]; 3 µM test compound, 48 h, P. falciparum NF54-luc erythrocytic stages): 97.6 ± 0.5%
IC50 ([1]; Table 1, 48 h incubation, luminescence viability readout, read-out: IC50 [µM], concentration for 50% inhibition of P. falciparum (NF54-luc strain) erythrocytic stages): 0.288 µM

O=c1c(-c2c[nH]c3ccccc23)c(-c2c[nH]c3ccc(Cl)cc23)c1=O [2c, 3-(5-Chloro-1H-indol-3-yl)-4-(1H-indol-3-yl)cyclobut-3-ene-1,2-dione]
IC50 [1, 2]: 4.23 µM

COc1ccc2[nH]cc(-c3c(-c4c[nH]c5cc(Br)ccc45)c(=O)c3=O)c2c1 [2am, 3-(6-Bromo-1H-indol-3-yl)-4-(5-methoxy-1H-indol-3-yl)cyclobut-3-ene-1,2-dione]
inhibition at 3 µM [1, 4]: 9.55 ± 5.8%

N#Cc1ccc2[nH]cc(-c3c(-c4c[nH]c5ccccc45)c(=O)c3=O)c2c1 [2f, 3-[2-(1H-Indol-3-yl)-3,4-dioxocyclobut-1-ene-1-yl]-1H-indol-5-carbonitrile]
IC50 [1, 2]: 6.72 µM

COc1ccc2[nH]cc(-c3c(-c4c(C)[nH]c5ccccc45)c(=O)c3=O)c2c1 [2v, 3-(5-Methoxy-1H-indol-3-yl)-4-(2-methyl-1H-indol-3-yl)cyclobut-3-ene-1,2-dione]
IC50 [1, 2]: 10 µM

Cc1[nH]c2ccccc2c1-c1c(-c2c(-c3ccccc3)[nH]c3ccccc23)c(=O)c1=O [2w, 3-(2-Methyl-1H-indol-3-yl)-4-(2-phenyl-1H-indol-3-yl)cyclobut-3-ene-1,2-dione]
IC50 [1, 2]: 9.26 µM

N#Cc1ccc2[nH]cc(-c3c(-c4c[nH]c5ccc(C#N)cc45)c(=O)c3=O)c2c1 [2p, 3,3’-(3,4-Dioxocyclobut-1-ene-1,2-diyl)bis(1H-indole-5-carbonitrile)]
inhibition at 3 µM [1, 4]: -3.1 ± 0.9%

O=c1c(-c2c[nH]c3ccccc23)c(-c2c[nH]c3ccc(OCc4ccccc4)cc23)c1=O [2e, 3-[5-(Benzyloxy)-1H-indol-3-yl]-4-(1H-indol-3-yl)cyclobut-3-ene-1,2-dione]
inhibition at 3 µM [1, 4]: -4.43 ± 10.6%

Cc1[nH]c2ccccc2c1-c1c(-c2c[nH]c3ccccc23)c(=O)c1=O [2g, 3-(1H-Indol-3-yl)-4-(2-methyl-1H-indol-3-yl)cyclobut-3-ene-1,2-dione]
IC50 [1, 2]: > 30 µM

COc1ccc2[nH]cc(-c3c(-c4c[nH]c5c(I)cccc45)c(=O)c3=O)c2c1 [2ak, 3-(7-Iodo-1H-indol-3-yl)-4-(5-methoxy-1H-indol-3-yl)cyclobut-3-ene-1,2-dione]
IC50 [1, 2]: 0.116 µM
inhibition at 3 µM [1, 4]: 98.8 ± 1.2%
IC50 [1, 3]: 0.12 µM
Selectivity Index (SI) = IC50, THP-1/IC50, Pf (human THP-1 cell line): 7.0
IC50 (human THP-1 cell line): 0.84 µM

O=c1c(-c2c(-c3ccccc3)[nH]c3ccccc23)c(-c2c(-c3ccccc3)[nH]c3ccccc23)c1=O [2m, 3,4-Bis(2-phenyl-1H-indol-3-yl)cyclobut-3-ene-1,2-dione]
IC50 [1, 2]: 2.47 µM

COc1ccc2c(c1)c(-c1c(-c3c[nH]c4ccc(Br)cc34)c(=O)c1=O)cn2C [2ao, 3-(5-Bromo-1H-indol-3-yl)-4-(5-methoxy-1-methyl-1H-indol-3-yl)cyclobut-3-en-1,2-dione]
IC50 [1, 2]: 0.504 µM
inhibition at 3 µM [1, 4]: 95.4 ± 1.1%
IC50 [1, 3]: 0.5 µM
IC50 [1, 5]: 0.54 µM
Selectivity Index (SI) = IC50, THP-1/IC50, Pf (human THP-1 cell line): 6.3
IC50 (human THP-1 cell line): 3.13 µM

COc1ccc2[nH]cc(-c3c(-c4c[nH]c5ccc(Cl)cc45)c(=O)c3=O)c2c1 [2ac, 3-(5-Chloro-1H-indol-3-yl)-4-(5-methoxy-1H-indol-3-yl)cyclobut-3-ene-1,2-dione]
IC50 [1, 2]: 1.52 µM

O=c1c(-c2c[nH]c3ccc(O)cc23)c(-c2c[nH]c3ccc(Br)cc23)c1=O [2ap, 3-(5-Bromo-1H-indol-3-yl)-4-(5-hydroxy-1H-indol-3-yl)cyclobut-3-ene-1,2-dione]
inhibition at 3 µM [1, 4]: 2.52 ± 1.4%

COc1ccc2[nH]cc(-c3c(-c4c[nH]c5cccc(Br)c45)c(=O)c3=O)c2c1 [2an, 3-(4-Bromo-1H-indol-3-yl)-4-(5-methoxy-1H-indol-3-yl)cyclobut-3-en-1,2-dione]
inhibition at 3 µM [1, 4]: 25.7 ± 2.7%

COc1ccc2[nH]cc(-c3c(-c4c[nH]c5ccc(C#N)cc45)c(=O)c3=O)c2c1 [2ah, 3-[2-(5-Methoxy-1H-indol-3-yl)-3,4-dioxocyclobut-1-en-1-yl]-1H-indole-5-carbonitrile]
IC50 [1, 2]: 6.92 µM

O=c1c(-c2c[nH]c3ccc(Br)cc23)c(-c2c[nH]c3ccc(Br)cc23)c1=O [2o, 3,4-Bis(5-bromo-1H-indol-3-yl)cyclobut-3-ene-1,2-dione]
IC50 [1, 2]: > 30 µM

CCc1cccc2c(-c3c(-c4c[nH]c5ccc(OC)cc45)c(=O)c3=O)c[nH]c12 [2al, 3-(7-Ethyl-1H-indol-3-yl)-4-(5-methoxy-1H-indol-3-yl)cyclobut-3-ene-1,2-dione]
IC50 [1, 2]: 0.511 µM
inhibition at 3 µM [1, 4]: 87 ± 0.5%
IC50 [1, 3]: 0.51 µM
Selectivity Index (SI) = IC50, THP-1/IC50, Pf (human THP-1 cell line): 1.4
IC50 (human THP-1 cell line): 0.7 µM

O=c1c(-c2c[nH]c3ccc(I)cc23)c(-c2c[nH]c3ccc(I)cc23)c1=O [2aq, 3,4-Bis(5-iodo-1H-indol-3-yl)cyclobut-3-ene-1,2-dione]
inhibition at 3 µM [1, 4]: 1.79 ± 1.8%

COc1ccc2[nH]cc(-c3c(-c4c[nH]c5c(Cl)cccc45)c(=O)c3=O)c2c1 [2ai, 3-(7-Chloro-1H-indol-3-yl)-4-(5-methoxy-1H-indol-3-yl)cyclobut-3-ene-1,2-dione]
IC50 [1, 2]: 0.691 µM
inhibition at 3 µM [1, 4]: 84.5 ± 1%
IC50 [1, 3]: 0.69 µM
Selectivity Index (SI) = IC50, THP-1/IC50, Pf (human THP-1 cell line): 259
IC50 (human THP-1 cell line): 179 µM

Cc1[nH]c2ccccc2c1-c1c(-c2cn(C)c3ccccc23)c(=O)c1=O [2y, 3-(1-Methyl-1H-indol-3-yl)-4-(2-methyl-1H-indol-3-yl)cyclobut-3-ene-1,2-dione]
IC50 [1, 2]: 2.67 µM
IC50 [1, 3]: 2.67 µM
Selectivity Index (SI) = IC50, THP-1/IC50, Pf (human THP-1 cell line): 3.1
IC50 (human THP-1 cell line): 8.4 µM

COc1ccc2[nH]cc(-c3c(-c4c[nH]c5ccc(F)cc45)c(=O)c3=O)c2c1 [2ab, 3-(5-Fluoro-1H-indol-3-yl)-4-(5-methoxy-1H-indol-3-yl)cyclobut-3-ene-1,2-dione]
inhibition at 3 µM [1, 4]: 19.2 ± 3.1%

CN1C(=O)C(c2c[nH]c3ccccc23)=C(c2c[nH]c3ccccc23)C1=O [compound 8, reference compound]
IC50 [1, 2]: 4 µM
inhibition at 3 µM [1, 4]: 34.6 ± 0.8%

O=c1c(-c2c[nH]c3ccccc23)c(-c2c[nH]c3ccc(Br)cc23)c1=O [2b, 3-(5-Bromo-1H-indol-3-yl)-4-(1H-indol-3-yl)cyclobut-3-ene-1,2-dione]
IC50 [1, 2]: 3.02 µM
IC50 [1, 3]: 3.02 µM
IC50 [1, 5]: 3 µM
Selectivity Index (SI) = IC50, THP-1/IC50, Pf (human THP-1 cell line): 7.6
IC50 (human THP-1 cell line): 23 µM

COc1ccc2[nH]cc(-c3c(-c4c[nH]c5c(Br)cccc45)c(=O)c3=O)c2c1 [2aj, 3-(7-Bromo-1H-indol-3-yl)-4-(5-methoxy-1H-indol-3-yl)cyclobut-3-ene-1,2-dione]
IC50 [1, 2]: 0.296 µM
inhibition at 3 µM [1, 4]: 99.5 ± 0.4%
IC50 [1, 3]: 0.3 µM
Selectivity Index (SI) = IC50, THP-1/IC50, Pf (human THP-1 cell line): 4.7
IC50 (human THP-1 cell line): 1.42 µM

Cc1[nH]c2ccccc2c1-c1c(-c2c[nH]c3ccc(Br)cc23)c(=O)c1=O [2x, 3-(5-Bromo-1H-indol-3-yl)-4-(2-methyl-1H-indol-3-yl)cyclobut-3-ene-1,2-dione]
IC50 [1, 2]: > 30 µM

Cn1cc(-c2c(-c3cn(C)c4ccccc34)c(=O)c2=O)c2ccccc21 [2i, 3,4-Bis(1-methyl-1H-indol-3-yl)cyclobut-3-ene-1,2-dione]
inhibition at 3 µM [1, 4]: 3.53 ± 1.7%

COc1ccc2[nH]cc(-c3c(-c4cn(C)c5ccc(Br)cc45)c(=O)c3=O)c2c1 [2ag, 3-(5-Bromo-1-methyl-1H-indol-3-yl)-4-(5-methoxy-1H-indol-3-yl)cyclobut-3-ene-1,2-dione]
inhibition at 3 µM [1, 4]: -0.06 ± 2.43%
IC50 [1, 5]: > 10 µM
